Read-outs that look alike come from different tables or passages of the source.
What was measured:
[1] = system: homologous PCA (passive cutaneous anaphlaxis) of rats; test: Homologous PCA (passive cutaneous anaphylaxis) test of rats for 48 hours, oral (antiallergic activity); format: in vivo, Wistar male rats; conditions: for minimal effective dose / responders at 0.01 mg/kg / responders at 0.1 mg/kg / responders at 1 mg/kg / responders at 10 mg/kg / responders at 100 mg/kg / responders at 0.001 mg/kg: Rattus norvegicus; for minimal effective dose: read-out: MED (minimum effective dosage), PCA inhibition; for responders at 0.01 mg/kg / responders at 0.1 mg/kg / responders at 1 mg/kg / responders at 10 mg/kg / responders at 100 mg/kg / responders at 0.001 mg/kg: po; for responders at 0.01 mg/kg / responders at 0.1 mg/kg / responders at 1 mg/kg / responders at 10 mg/kg / responders at 100 mg/kg / responders at 0.001 mg/kg / Number of positive zooids in one group of 3 zooids: positive = inhibition rate 50% or higher; for responders at 0.01 mg/kg / responders at 0.1 mg/kg / responders at 1 mg/kg / responders at 10 mg/kg / responders at 100 mg/kg: read-out: Number of positive zooids in one group of 3 zooids (converted); for responders at 0.001 mg/kg: dosage 0.001 mg/kg, read-out: Number of positive zooids in one group of 3 zooids
Procedure: Antiallergic activity was investigated by a homologous PCA (passive cutaneous anaphlaxis) of rats for 48 hours, where Wistar male rats having body weights of 180 to 220 g were used for sampling of antiserum and Wistar male rats having body weights of 120 to 140 g were used for the PCA test.
Anti-egg white albumin (EWA) rat serum was prepared according to Stotland and Share's method [Canad. J. Physiol. Pharmacol. 52, 1114 (1974)]. That is, 1 mg of EWA was mixed with 20 mg of aluminum hydroxide gel and 0.5 ml of mixed vaccine of pertussis, diphtheria and tetanus, and the mixture was subcutaneously administered in four portions into rat's footpad. After 14 days, blood was sampled from the carotid artery, and the serum was separated from the sampled blood, and preserved under freezing at -80° C. The potency of the antiserumin in the homologous PCA for 48 hours was 1:32.
Groups each consisting of 3 rats were used, and 0.05 ml of anti-EWA rat serum diluted with a physiological saline solution to 8 times as much was incutaneously injected each at two positions of depilated back to make the animals passively sensitised. After 47 hours, the compound of the present invention, or its solution (physiological saline solution or CMC solution) was orally administered. One hour thereafter, 0.5 ml/100 g of 1% Evan's blue physiological saline solution containing 2 mg of the antigen EWA was administered into the tail vein, and 30 minutes thereafter, the animals were sacrificed by exsanguination. Then, the skins were stripped and the amount of leaked pigment at the blue-dyed parts was measured according to the Katayama et al method [Microbiol. Immunol. 22, 89 (1978)]. That is, the blue-dyed parts were cut out by scissors, and placed in test tubes containing 1 ml of 1N KOH and incubated at 37° C. for 24 hours. Then, 9 ml of a mixture of 0.6N phosphoric acid and acetone (5:13) was added thereto, and the mixture was shaked and centrifuged at 2,500 rpm for 10 minutes. Absorbancy of the supernatant at […] was measured, and the amount of leaked pigment was quantitatively determined by the calibration curve prepared in advance. An average of measurements at the two position was made a value for one zooid, and inhibition rate for the individual zooid was calculated by the following formula: [formula]

dd, male mice = format: in vivo
Procedure: Groups each consisting of 3 dd, male mice having body weights of 20±1 g were used, and the compound of the present invention was administered orally (po: 300 mg/kg) or intraperitoneally (ip: 100 mg/kg).

[2] = minimum dosage with positive case in at least one of three rats
[3] = mice, mortality 7 days after administration

Row | Compound | minimal effective dose [1, 2] | responders at 0.01 mg/kg ([1]; dosage 0.01 mg/kg) | responders at 0.1 mg/kg ([1]; dosage 0.1 mg/kg) | responders at 1 mg/kg ([1]; dosage 1 mg/kg) | responders at 10 mg/kg ([1]; dosage 10 mg/kg) | responders at 100 mg/kg ([1]; dosage 100 mg/kg) | Acute toxicity (MLD), ip (dd, male mice; [3]) | Acute toxicity (MLD), po (dd, male mice; [3]) | responders at 0.001 mg/kg [1] | Number of positive zooids in one group of 3 zooids ([1]; dosage 0.01 mg/kg) | Number of positive zooids in one group of 3 zooids ([1]; dosage 0.1 mg/kg) | Number of positive zooids in one group of 3 zooids ([1]; dosage 1 mg/kg) | Number of positive zooids in one group of 3 zooids ([1]; dosage 10 mg/kg) | Number of positive zooids in one group of 3 zooids ([1]; dosage 100 mg/kg) | MED (minimum effective dosage), PCA inhibition [1, 2] | Acute toxicity (MLD), ip (dd, male mice; mouse, in vivo, 10080 min) | Acute toxicity (MLD), po (dd, male mice; mouse, in vivo, 10080 min)
1 | CN(C)CC/C=C1\c2ccccc2COc2ccc(C(=O)O)cc21 [3'] | 0.1 mg/kg | 0% | 33.3% | 33.3% | 66.7% | 100% |  |  |  |  |  |  |  |  |  |  | 
2 | O=C(O)c1ccc2c(c1)C(=CCCN1CCCC1)c1ccccc1CO2 [Compound 7, 11-(3-Pyrrolidinopropylidene)-6,11-dihydrodibenz[b,e]oxepin-2-carboxylic acid] | 1 mg/kg |  | 0% | 33.3% | 66.7% | 100% | > 100 mg/kg | > 300 mg/kg |  |  |  |  |  |  |  |  | 
3 | CN(C)CC/C=C1/c2ccccc2COc2ccc(CCCO)cc21 [Compound 33, Cis-11-(3-dimethylaminopropylidene)-2-(3-hydroxypropyl)-6,11-dihydrodibenz[b,e]oxepin; Trans-11-(3-dimethylaminopropylidene)-2-(3-hydroxypropyl)-6,11-dihydrodibenz[b,e]oxepin] | 1 mg/kg |  | 0% | 33.3% | 100% | 100% |  |  |  |  |  |  |  |  |  |  | 
4 | CN(C)CCC=C1c2ccccc2COc2ccc(CCC(=O)O)cc21 [Compound 28, 3-[11-(3-Dimethylaminopropylidene)-6,11-dihydrodibenz[b,e]oxepin-2-yl]-propionic acid] | 0.01 mg/kg | 66.7% | 66.7% | 100% | 100% | 100% | > 100 mg/kg | > 300 mg/kg | 0% |  |  |  |  |  |  |  | 
5 | CCN(CC)CCN=C1c2ccccc2COc2ccc(CCC(=O)O)cc21 [Compound 43, 3-[11-(2-Diethylaminoethyl)imino-6,11-dihydrodibenz[b,e]oxepin-2-yl]-propionic acid] | 10 mg/kg |  | 0% | 0% | 66.7% | 100% | > 100 mg/kg | > 300 mg/kg |  |  |  |  |  |  |  |  | 
6 | O=C(O)c1ccc2c(c1)C(=CCCN1CCOCC1)c1ccccc1CO2 [Compound 56, 11-(3-Morpholinopropylidene)-6,11-dihydrodibenz[b,e]-oxepin-2-carboxylic acid] | 0.1 mg/kg | 0% | 33.3% | 100% | 100% | 100% | > 100 mg/kg | > 300 mg/kg |  |  |  |  |  |  |  |  | 
7 | CN(C)CCCC=C1c2ccccc2COc2ccc(C(=O)O)cc21 [Compound 9, 11-(4-Dimethylaminobutylidene)-6,11-dihydrodibenz[b,e]oxepin-2-carboxylic acid] | 1 mg/kg | 0% | 0% | 66.7% | 100% | 100% | > 100 mg/kg | > 300 mg/kg |  |  |  |  |  |  |  |  | 
8 | CN1CCN(CC=C2c3ccccc3COc3ccc(CC(=O)O)cc32)CC1 [Compound 26, 11-[2-(4-Methylpiperazino)ethylidene]-6,11-dihydrodibenz[b,e]oxepin-2-acetic acid] | 1 mg/kg |  | 0% | 66.7% | 100% | 100% | > 100 mg/kg | > 300 mg/kg |  |  |  |  |  |  |  |  | 
9 | CN(C)CC/C=C1\c2ccccc2COc2ccc(CC(=O)O)cc21 [Compound 20 (trans), Trans-11-(3-dimethylaminopropylidene)-6,11-dihydrodibenz[b,e]oxepin-2-acetic acid] |  |  |  |  |  |  | > 100 mg/kg | > 300 mg/kg | 0% | 0/3 | 3/3 | 3/3 | 2/3 | 2/3 | 0.1 mg/kg |  | 
10 | CN(C)CC/C=C1/c2ccccc2COc2ccc(CCC(=O)O)cc21 [Compound 28 (cis), Cis-3-[11-(3-dimethylaminopropylidene)-6,11-dihydrodibenz[b,e]oxepin-2-yl]-propionic acid] | 0.1 mg/kg | 0% | 33.3% | 100% | 66.7% | 100% | > 100 mg/kg | > 300 mg/kg |  |  |  |  |  |  |  |  | 
11 | CCN(CC)CC/C=C1/c2ccccc2COc2ccc(C(=O)O)cc21 [Compound 5, 11-(3-Diethylaminopropylidene)-6,11-dihydrodibenz[b,e]oxepin-2-carboxylic acid] | 1 mg/kg | 0% |  | 100% | 100% | 100% |  |  |  |  |  |  |  |  |  | > 100 mg/kg | > 300 mg/kg
12 | CN(C)CC/C=C1/c2ccccc2COc2ccc(CC(=O)O)cc21 [Compound 20 (cis), Cis-11-(3-dimethylaminopropylidene)-6,11-dihydrodibenz[b,e]oxepin-2-acetic acid] | 0.01 mg/kg | 33.3% | 100% | 100% | 100% | 100% | > 100 mg/kg | > 300 mg/kg | 0% |  |  |  |  |  |  |  | 
13 | CN(C)CC/C=C1/c2ccccc2COc2ccc(CCO)cc21 [Compound 31 (cis), Cis-11-(3-dimethylaminopropylidene)-2-(2-hydroxyethyl)-6,11-dihydrodibenz[b,e]oxepin] | 0.1 mg/kg | 0% | 66.7% | 100% | 100% |  | > 100 mg/kg | 300 mg/kg | 0% |  |  |  |  |  |  |  | 
14 | O=C(O)c1ccc2c(c1)C(=CCN1CCOCC1)c1ccccc1CO2 [Compound 13, 11-(2-Morpholinoethylidene)-6,11-dihydrodibenz[b,e]oxepin-2-carboxylic acid] | 10 mg/kg |  | 0% | 0% | 33.3% | 100% | > 100 mg/kg | > 300 mg/kg |  |  |  |  |  |  |  |  | 
15 | O=C(O)c1ccc2c(c1)/C(=C\CN1CCSCC1)c1ccccc1CO2 [Compound 15, 11-(2-Thiomorpholinoethylidene)-6,11-dihydrodibenz[b,e]oxepin-2-carboxylic acid] | 100 mg/kg |  | 0% | 0% | 0% | 100% |  |  |  |  |  |  |  |  |  |  | 
16 | CN(C)CC/C=C1\c2ccccc2COc2ccc(CC(=O)O)cc21 [20'] | 0.1 mg/kg | 0% |  | 100% |  |  |  |  |  |  |  |  |  |  |  |  | 
